Measurements from ChEMBL document CHEMBL3616386, “3-Propionyl-thiazolidine-4-carboxylic acid ethyl esters: a family of antiproliferative thiazolidines” (Medchemcomm, 2015).

Experiments:
[1] = Cytotoxicity against human MV cells assessed as inhibition of cell proliferation by sulforhodamine B assay; assay type: functional, cell-based
[2] = Cytotoxicity against human HuH7 cells assessed as inhibition of cell proliferation by sulforhodamine B assay; assay type: functional, cell-based; settings: Huh-7

## C#CC(=O)N1C(c2ccccc2)SC[C@@H]1C(=O)OCC (some centres not stated)
[1]
  IC50: 400 nM
[2]
  IC50: 5300 nM

## C#CC(=O)N1C(c2ccc(OC)cc2)SC[C@@H]1C(=O)OCC (mixture of isomers)
[1]
  IC50: 700 nM
[2]
  IC50: 1400 nM

## C#CC(=O)N1C(c2ccc(F)cc2)SC[C@@H]1C(=O)OCC (mixture of isomers)
[1]
  IC50: 400 nM
[2]
  IC50: 700 nM

## C#CC(=O)N1C(c2cccc(F)c2)SC[C@@H]1C(=O)OCC (mixture of isomers)
[1]
  IC50: 1700 nM
[2]
  IC50: 1400 nM

## C#CC(=O)N1C(c2ccccc2F)SC[C@@H]1C(=O)OCC (mixture of isomers)
[1]
  IC50: 1700 nM
[2]
  IC50: 1700 nM

## C#CC(=O)N1C(c2ccc(C#N)cc2)SC[C@@H]1C(=O)OCC (mixture of isomers)
[1]
  IC50: 2400 nM
[2]
  IC50: 2600 nM

## C#CC(=O)N1C(CCCCC)SC[C@@H]1C(=O)OCC (mixture of isomers)
[1]
  IC50: 2000 nM
[2]
  IC50: 1800 nM

## C#CC(=O)N1C(CCCC)SC[C@@H]1C(=O)OCC (mixture of isomers)
[1]
  IC50: 400 nM
[2]
  IC50: 500 nM

## C#CC(=O)N1C(C(CC)CCCC)SC[C@@H]1C(=O)OCC (mixture of isomers)
[1]
  IC50: 1600 nM
[2]
  IC50: 1700 nM

## C#CC(=O)N1C(CC(C)CC(C)(C)C)SC[C@@H]1C(=O)OCC (mixture of isomers)
[1]
  IC50: 1100 nM
[2]
  IC50: 1600 nM

## C#CC(=O)N1C(C(C)CCC)SC[C@@H]1C(=O)OCC (mixture of isomers)
[1]
  IC50: 500 nM
[2]
  IC50: 600 nM

## C#CC(=O)N1C(C(C)(C)C)SC[C@@H]1C(=O)OCC (mixture of isomers)
[1]
  IC50: 900 nM
[2]
  IC50: 800 nM

## CC[C@@]1(O)C(=O)OCc2c1cc1n(c2=O)Cc2cc3ccccc3nc2-1 [CAMPTOTHECIN]
[1]
  IC50: < 1000 nM
[2]
  IC50: 100 nM

## O=c1[nH]cc(F)c(=O)[nH]1 [FLUOROURACIL]
[1]
  IC50: 10000 nM
